Experimental data published in PMC6407917, “Identification of GSK3186899/DDD853651 as a Preclinical Development Candidate for the Treatment of Visceral Leishmaniasis” (Journal of Medicinal Chemistry, 2018).

Tests used:
Assay in all cases: biochemical
Set-up in all cases: species or system HEK293/K-562/placenta mixed human extract; Kinobeads chemoproteomic competition binding, quantified by TMT LC-MS/MS, dose response up to 20 uM
PTK2 = PTK2 (Homo sapiens, UniProt Q05397)
IRAK4 = IRAK4 (Homo sapiens, UniProt Q9NWZ3)
MAP3K3 = MAP3K3 (Homo sapiens, UniProt Q99759)
Sequence of MAP3K3 (Q99759 whole entry): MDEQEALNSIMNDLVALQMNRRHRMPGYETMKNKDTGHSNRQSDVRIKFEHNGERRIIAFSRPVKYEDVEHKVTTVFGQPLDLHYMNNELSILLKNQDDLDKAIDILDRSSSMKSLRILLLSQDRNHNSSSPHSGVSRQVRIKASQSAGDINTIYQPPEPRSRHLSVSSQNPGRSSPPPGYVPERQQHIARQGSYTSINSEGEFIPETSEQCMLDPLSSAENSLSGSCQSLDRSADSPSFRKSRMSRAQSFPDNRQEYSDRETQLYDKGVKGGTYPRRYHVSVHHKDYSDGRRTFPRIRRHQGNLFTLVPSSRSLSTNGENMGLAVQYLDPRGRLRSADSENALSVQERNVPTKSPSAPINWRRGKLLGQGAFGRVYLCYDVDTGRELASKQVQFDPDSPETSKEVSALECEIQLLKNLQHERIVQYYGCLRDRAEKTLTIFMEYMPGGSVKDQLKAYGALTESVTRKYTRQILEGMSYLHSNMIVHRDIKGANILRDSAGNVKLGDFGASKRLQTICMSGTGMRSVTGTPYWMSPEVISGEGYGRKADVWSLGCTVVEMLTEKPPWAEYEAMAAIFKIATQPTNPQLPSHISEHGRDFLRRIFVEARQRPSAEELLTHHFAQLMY

ITK = ITK (Homo sapiens, UniProt Q08881)
ILK = ILK (Homo sapiens, UniProt Q13418)
PIM3 = PIM3 (Homo sapiens, UniProt Q86V86)
ADCK1 = ADCK1 (Homo sapiens, UniProt Q86TW2)
NRK = NRK (Homo sapiens, UniProt Q7Z2Y5)
Sequence of NRK (Q7Z2Y5 whole entry): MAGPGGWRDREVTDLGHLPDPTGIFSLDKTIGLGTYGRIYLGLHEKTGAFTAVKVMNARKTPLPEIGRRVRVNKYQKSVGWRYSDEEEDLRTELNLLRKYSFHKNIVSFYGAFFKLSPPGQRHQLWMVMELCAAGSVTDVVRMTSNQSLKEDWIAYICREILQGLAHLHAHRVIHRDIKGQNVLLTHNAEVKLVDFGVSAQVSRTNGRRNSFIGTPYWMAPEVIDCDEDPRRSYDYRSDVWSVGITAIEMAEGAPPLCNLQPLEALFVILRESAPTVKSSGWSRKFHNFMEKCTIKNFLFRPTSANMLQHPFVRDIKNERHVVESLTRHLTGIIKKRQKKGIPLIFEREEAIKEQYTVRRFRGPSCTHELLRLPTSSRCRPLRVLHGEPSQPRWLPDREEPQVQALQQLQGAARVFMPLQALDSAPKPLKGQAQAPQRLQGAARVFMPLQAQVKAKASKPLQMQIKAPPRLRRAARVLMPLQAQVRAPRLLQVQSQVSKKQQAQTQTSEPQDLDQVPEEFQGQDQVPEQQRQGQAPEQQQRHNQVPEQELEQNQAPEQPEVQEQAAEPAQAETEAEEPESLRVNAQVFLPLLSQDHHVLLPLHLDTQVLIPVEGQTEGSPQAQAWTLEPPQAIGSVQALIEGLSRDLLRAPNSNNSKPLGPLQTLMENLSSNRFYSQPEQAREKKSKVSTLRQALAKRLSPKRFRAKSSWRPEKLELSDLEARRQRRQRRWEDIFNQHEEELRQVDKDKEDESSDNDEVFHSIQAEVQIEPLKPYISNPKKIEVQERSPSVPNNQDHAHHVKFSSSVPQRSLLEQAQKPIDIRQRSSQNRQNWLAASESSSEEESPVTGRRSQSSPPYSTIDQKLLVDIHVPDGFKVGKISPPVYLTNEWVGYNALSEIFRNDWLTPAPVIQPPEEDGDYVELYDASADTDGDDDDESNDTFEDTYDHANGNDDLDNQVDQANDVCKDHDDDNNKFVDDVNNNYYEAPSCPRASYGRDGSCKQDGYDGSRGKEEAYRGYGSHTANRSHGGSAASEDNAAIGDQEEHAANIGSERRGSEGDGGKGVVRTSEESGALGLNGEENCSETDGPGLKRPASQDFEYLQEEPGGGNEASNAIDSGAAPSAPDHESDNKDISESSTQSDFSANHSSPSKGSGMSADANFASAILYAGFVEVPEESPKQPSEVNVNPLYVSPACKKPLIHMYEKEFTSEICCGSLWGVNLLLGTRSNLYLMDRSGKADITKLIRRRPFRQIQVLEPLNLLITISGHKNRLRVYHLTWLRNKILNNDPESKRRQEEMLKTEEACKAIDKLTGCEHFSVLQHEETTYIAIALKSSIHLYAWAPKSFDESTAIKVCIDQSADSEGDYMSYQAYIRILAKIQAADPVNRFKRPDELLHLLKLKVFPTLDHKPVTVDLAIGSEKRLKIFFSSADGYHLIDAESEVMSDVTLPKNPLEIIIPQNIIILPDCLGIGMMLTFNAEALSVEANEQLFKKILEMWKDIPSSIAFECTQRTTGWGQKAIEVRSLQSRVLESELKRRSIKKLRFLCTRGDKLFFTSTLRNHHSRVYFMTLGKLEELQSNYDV

DAPK1 = DAPK1 (Homo sapiens, UniProt P53355)
PRKD1 = PRKD1 (Homo sapiens, UniProt Q15139)
CDC42BPA = CDC42BPA (Homo sapiens, UniProt Q5VT25)
TEK = TEK (Homo sapiens, UniProt Q02763)
Sequence of TEK (Q02763 whole entry): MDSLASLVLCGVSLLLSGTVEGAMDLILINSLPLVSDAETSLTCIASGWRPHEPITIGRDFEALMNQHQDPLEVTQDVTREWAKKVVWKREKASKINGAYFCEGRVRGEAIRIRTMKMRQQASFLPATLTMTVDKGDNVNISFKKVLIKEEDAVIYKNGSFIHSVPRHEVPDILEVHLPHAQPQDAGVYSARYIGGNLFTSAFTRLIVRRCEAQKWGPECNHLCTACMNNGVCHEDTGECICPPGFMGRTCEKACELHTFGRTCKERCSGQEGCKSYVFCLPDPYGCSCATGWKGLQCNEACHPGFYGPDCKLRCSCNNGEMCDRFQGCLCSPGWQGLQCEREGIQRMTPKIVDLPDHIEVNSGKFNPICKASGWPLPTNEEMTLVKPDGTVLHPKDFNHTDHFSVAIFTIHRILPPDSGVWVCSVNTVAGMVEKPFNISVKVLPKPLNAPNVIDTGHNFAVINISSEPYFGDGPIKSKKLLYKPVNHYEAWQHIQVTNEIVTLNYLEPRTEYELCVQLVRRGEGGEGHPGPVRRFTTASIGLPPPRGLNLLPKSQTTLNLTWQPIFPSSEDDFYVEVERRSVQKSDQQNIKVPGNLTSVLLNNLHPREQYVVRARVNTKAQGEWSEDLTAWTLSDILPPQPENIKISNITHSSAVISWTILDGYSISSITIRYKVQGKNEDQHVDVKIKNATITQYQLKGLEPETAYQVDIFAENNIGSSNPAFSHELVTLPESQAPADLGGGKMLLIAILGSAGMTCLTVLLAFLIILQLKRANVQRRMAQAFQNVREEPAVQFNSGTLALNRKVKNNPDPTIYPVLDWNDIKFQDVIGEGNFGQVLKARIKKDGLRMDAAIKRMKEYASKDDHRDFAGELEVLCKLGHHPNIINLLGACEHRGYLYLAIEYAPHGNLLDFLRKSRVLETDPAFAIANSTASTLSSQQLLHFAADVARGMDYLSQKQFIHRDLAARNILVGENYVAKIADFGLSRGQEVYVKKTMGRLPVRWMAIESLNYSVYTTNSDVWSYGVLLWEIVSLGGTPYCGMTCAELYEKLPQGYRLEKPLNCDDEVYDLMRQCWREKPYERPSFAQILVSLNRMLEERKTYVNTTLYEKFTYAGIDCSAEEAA

AZI2 = AZI2 (Homo sapiens, UniProt Q9H6S1)
CDK9 = CDK9 (Homo sapiens, UniProt P50750)
Sequence of CDK9 (P50750 whole entry): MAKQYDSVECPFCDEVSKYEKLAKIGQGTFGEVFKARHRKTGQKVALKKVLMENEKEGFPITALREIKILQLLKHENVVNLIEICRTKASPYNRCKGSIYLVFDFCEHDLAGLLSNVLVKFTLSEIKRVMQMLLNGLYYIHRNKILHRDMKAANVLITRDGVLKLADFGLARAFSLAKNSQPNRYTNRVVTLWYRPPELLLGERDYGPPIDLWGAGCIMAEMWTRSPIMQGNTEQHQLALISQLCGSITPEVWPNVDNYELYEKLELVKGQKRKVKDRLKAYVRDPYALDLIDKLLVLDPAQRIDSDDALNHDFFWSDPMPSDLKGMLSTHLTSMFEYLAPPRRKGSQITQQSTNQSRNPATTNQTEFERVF

FGR = FGR (Homo sapiens, UniProt P09769)
Sequence of FGR (P09769 whole entry): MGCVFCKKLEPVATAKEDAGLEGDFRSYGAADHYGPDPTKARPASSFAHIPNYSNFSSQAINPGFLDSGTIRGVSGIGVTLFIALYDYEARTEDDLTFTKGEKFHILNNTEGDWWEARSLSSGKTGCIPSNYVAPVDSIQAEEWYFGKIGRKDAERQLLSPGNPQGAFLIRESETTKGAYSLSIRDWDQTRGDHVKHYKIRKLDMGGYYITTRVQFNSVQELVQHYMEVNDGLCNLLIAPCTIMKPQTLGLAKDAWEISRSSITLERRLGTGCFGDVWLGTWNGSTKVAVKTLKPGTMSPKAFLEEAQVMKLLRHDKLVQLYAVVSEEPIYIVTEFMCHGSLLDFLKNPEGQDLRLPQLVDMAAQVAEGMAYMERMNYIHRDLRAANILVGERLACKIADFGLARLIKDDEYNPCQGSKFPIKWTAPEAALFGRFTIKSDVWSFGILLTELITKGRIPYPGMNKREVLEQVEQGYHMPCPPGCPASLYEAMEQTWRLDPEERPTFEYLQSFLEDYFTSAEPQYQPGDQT

AAK1 = AAK1 (Homo sapiens, UniProt Q2M2I8)
CSNK2B = CSNK2B (Homo sapiens, UniProt P67870)
Sequence of CSNK2B (P67870 whole entry): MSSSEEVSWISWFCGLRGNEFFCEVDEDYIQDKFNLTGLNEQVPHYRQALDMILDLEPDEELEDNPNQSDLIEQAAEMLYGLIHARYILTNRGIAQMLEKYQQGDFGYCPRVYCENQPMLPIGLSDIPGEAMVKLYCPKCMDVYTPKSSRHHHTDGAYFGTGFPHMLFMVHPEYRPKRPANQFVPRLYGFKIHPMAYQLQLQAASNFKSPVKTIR

EPHB6 = EPHB6 (Homo sapiens, UniProt O15197)
CAMK2G = CAMK2G (Homo sapiens, UniProt Q13555)
Sequence of CAMK2G (Q13555 whole entry): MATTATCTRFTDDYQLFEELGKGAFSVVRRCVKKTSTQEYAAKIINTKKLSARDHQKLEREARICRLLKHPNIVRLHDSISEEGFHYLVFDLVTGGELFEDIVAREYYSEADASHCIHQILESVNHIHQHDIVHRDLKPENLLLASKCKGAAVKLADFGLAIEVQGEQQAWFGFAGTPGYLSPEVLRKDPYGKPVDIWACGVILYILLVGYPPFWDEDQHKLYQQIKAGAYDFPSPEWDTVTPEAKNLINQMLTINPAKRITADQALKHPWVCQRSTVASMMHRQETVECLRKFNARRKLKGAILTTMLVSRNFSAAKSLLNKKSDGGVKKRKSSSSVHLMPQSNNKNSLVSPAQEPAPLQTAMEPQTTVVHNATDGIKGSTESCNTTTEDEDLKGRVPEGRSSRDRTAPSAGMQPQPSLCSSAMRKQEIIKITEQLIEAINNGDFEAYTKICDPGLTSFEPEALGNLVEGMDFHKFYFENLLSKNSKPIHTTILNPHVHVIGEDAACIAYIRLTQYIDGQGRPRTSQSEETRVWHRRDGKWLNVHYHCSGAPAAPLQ

BMX = BMX (Homo sapiens, UniProt P51813)
GAK = GAK (Homo sapiens, UniProt O14976)

SMILES: COc1ccccc1-c1n[nH]c2nc(N[C@H]3CC[C@H](NS(=O)(=O)CCC(F)(F)F)CC3)nc(OC)c12 [compound 31, 3,3,3-Trifluoro-N-(trans-4-((4-methoxy-3-(2-methoxyphenyl)-1H-pyrazolo[3,4-d]pyrimidin-6-yl)amino)cyclohexyl)propane-1-sulfonamide]
- IC50 (PTK2): ≥ 20 µM
- IC50 (IRAK4): ≥ 20 µM
- IC50 (MAP3K3): ≥ 20 µM
- IC50 (ITK): ≥ 20 µM
- IC50 (ILK): ≥ 20 µM
- IC50 (PIM3): ≥ 20 µM
- IC50 (ADCK1): ≥ 20 µM
- IC50 (NRK): ≥ 20 µM
- IC50 (DAPK1): ≥ 20 µM
- IC50 (PRKD1): ≥ 20 µM
- IC50 (CDC42BPA): ≥ 20 µM
- IC50 (TEK): ≥ 20 µM
- IC50 (AZI2): ≥ 20 µM
- IC50 (CDK9): 3.6 µM
- IC50 (FGR): ≥ 20 µM
- IC50 (AAK1): ≥ 20 µM
- IC50 (CSNK2B): ≥ 20 µM
- IC50 (EPHB6): ≥ 20 µM
- IC50 (CAMK2G): ≥ 20 µM
- IC50 (BMX): ≥ 20 µM
- IC50 (GAK): 9.9 µM
